From US9750426B2, “System and method for assessing response to chemotherapy using magnetic resonance elastography” (MAYO FOUNDATION FOR MEDICAL EDUCATION AND RESEARCH, priority 2010, dated 2017)

Experiments:
DoHH2 cells = system: DoHH2 cells
Procedure: The mice were divided into two groups, the first considered the “control” (N=7) and the second the chemotherapy or “chemo” (N=8) group. […] Following an initial scan to determine baseline stiffness, the control group received an injection of normal saline while the chemo group received 4 mg of cyclophosphamide (160 mg/kg). MRE was performed on each mouse using an experimental setup specifically designed to accommodate the mouse and providing the mouse with the requisite anesthesia, via a constant flow of isofluorane during the image acquisition. MRE was performed at different time points (baseline to 4 days post-injection). The experimental setup included a high-frequency electromechanical driver that was developed to produce localized vibrations in the tumor within the mouse at a frequency of 800 Hz. All experiments were performed on a 3.0 T whole-body MRI scanner using a specialized 6-cm diameter transmit-receive RF coil and an EPI based MRE sequence. The MRE imaging parameters included FOV=5 cm; TRITE=1100/99 msec; motion encoding gradient (MEG) frequency=800 Hz; MEG direction=SI, AP, RL; motion encoding sensitivity=3.98 μm/(π radians); BW=83.0 kHz. Volumetric measurements were obtained using both a caliper and measurements from a T2-weighted image data set in order to quantify treatment response. Elastograms (stiffness maps) were calculated using a Multiple Model Direct Inversion (MMDI) algorithm with a directional filter (Butterworth bandpass filter with cutoff frequencies 2-128 waves/FOV).

Text for DoHH2 tumor cells: The process 230 starts at process block 232 with either the positioning of the subject in the bore of an MRI system and the coupling of an MRE drive or the positioning of an ex viva sample within an MRE system. […] Thus, the step of positioning the subject for imaging at process block 232 may be initiated within hours to days after the completion of chemotherapy, instead of weeks later, as required in traditional assessment techniques. Once the subject is positioned for MRE imaging, using a high-frequency pulse sequence, such as the example sequence described with respect to FIG. 3, raw MRE data is collected from the subject or sample at process block 234.
After the raw MRE data is collected at process block 234, the data is pre-processed at process block 236. Pre-processing may include minimum discontinuity phase unwrapping, 2-dimensional filtering along, for example, eight evenly spaced directions in the imaging plane and 2-dimensional order-4 Butterworth bandpass filtering with cutoff wave numbers of 1 and 80 waves/FOV. Then, at process block 238, a 2-D phase gradient inversion is used to process the preprocessed data and produce elastograms. The phase gradient inversion may be done, for example, with a 5×5 window. Using the elastograms, at process block 240, regions of interest (ROIs) can be drawn on the tumor where wave penetration and phase signal to noise ratio were visually acceptable. Using the selected ROIs, the mean stiffness values in these regions of interest can then be measured for each slice, at process block 242, and the average of these values can then be reported as a stiffness value of tumors, at process block 244. Using this information, a determination of the response of the tumor to the chemotherapy can be determined.
The tumor cells were maintained in RPMI 1640 medium supplemented with 10% heat-inactivated FCS (Sigma Chemical Co.), 50 U/ml penicillin G, 50 μg/ml gentamicin and 100 μg/ml streptomycin (all from Ufe Technologies, Grand Island, N.Y., USA) with the addition of 10 mM HEPES, 4.5 g/l glucose and 1 mM sodium pyruvate. […]

SMILES: O=P1(N(CCCl)CCCl)NCCCO1 (stereo not drawn) [cyclophosphamide]
- change in stiffness from baseline at day 4 (DoHH2 cells; Tukey HSD test, p=0.02): significant change in stiffness
- change in stiffness from baseline at day 3 (DoHH2 cells; Tukey HSD test, p=0.04): significant change in stiffness
- change in tumor volume (DoHH2 cells; caliper and T2-weighted image measurements, baseline to day 4, p=0.59, no statistically significant change): remained the same or decreased slightly
- average shear stiffness at day 4 (DoHH2 cells; in vivo MRE 800 Hz, 4 mg (160 mg/kg), day 4, N=8, baseline 9.885±1.74 kPa): 8.237±1.93 kPa
- average decrease in shear stiffness from baseline to day 4 (DoHH2 cells; in vivo MRE, 4 mg (160 mg/kg), N=8): 1.649 kPa
- change in stiffness in vivo before three days after injection (DoHH2 cells; time points before three days after injection): No changes in stiffness were observed
- tumor stiffness, Mean (DoHH2 tumor cells; CB17/SCID mice, subcutaneous DoHH2 tumors, 160 mg/kg (4 mg) intraperitoneally, tumors excised four hours later, MRE ex vivo, N=5): 21.82 kPa
- stiffness change 4 hours after drug administration (ex vivo) (DoHH2 tumor cells; ex vivo mouse tumor studies, 4 hours after drug administration): stiffness increased
- change in tumor stiffness measured by MRE versus saline (DoHH2 tumor cells; one-sided T-test between chemo and saline groups, p value 0.034, 4 hours after dosing): significant change in the tumor stiffness
